Source: US5244795A, “Processes for preparing cholesterol lowering compounds” (Merck & Co., Inc., priority 1992, dated 1993)

Legend:
Test in all cases: FISP disc diffusion assay
Assay type in all cases: cell-based
[1] = test system: Brettanomyces bruxellensis; design: key: F: clear zone, fuzzy edges; S: slightly hazy zone (some growth observed throughout zone); H: hazy zone (considerable growth observed throughout zone); V: very hazy zone (zone of inhibition is barely discernable); R: zone displays a ring of resistant growth; no qualifier: clear zone throughout, sharp edges; details: 250 μg/ml in CH2Cl2
Text: (§1) The FISP assay employs disc diffusion susceptibility testing methods to generate a spectrum of activity against a panel of representative yeasts, filamentous fungi and bacteria.
(§2) The yeasts employed in the assay are Saccharomyces cerevisiae, Candida albicans, Candida tropicalis, Candida rugosa, Brettanomyces bruxellensis, Torulospora hansenii, Candida guilliermondi, Candida pseudotropicalis, Torulopsis glabrata, Cryptococcus albidus, Cryptococcus laurentii and Kluyveromyces fragilis.
(§3) For carrying out the assay, seeded assay plates are prepared in the following manner according to the type of assay strain.
(§4) Inocula for yeasts and bacterial strains are prepared from overnight broth cultures then diluted into potato dextrose agar to a final concentration of either 40 percent or 70 percent transmission at 660 nm.
(§5) Assay plates for the yeasts and filamentous fungi are prepared by diluting the inoculum into appropriate molten agar medium, cooled to 45° C. to obtain a final concentration of 4 percent.
(§6) The seeded agar media thus prepared are dispensed into petri dishes for assays (11 ml per dish).
(§7) The samples to be tested for production of antifungal agent are applied to 6.2 mm filter paper discs (25 μl/disc) and air dried at 24° C. When the sample to be tested is crude broth, it may be centrifuged prior to application. The discs bearing the material to be tested are then applied employing sterile conditions to the seeded assay plates. The assay plates are then incubated at either 28° C. or 37° C. for 24 hours. In one of the assays for Bacillus subtilis, the sample is applied to a disc previously impregnated with 4M potassium chloride at 25 μl/disc and then air dried.
(§8) Following incubation, the inhibition zones are measured and recorded. The measurements are made from the extreme edge where growth differs from the background zone. The zones are noted as to appearance as fuzzy edge and clear center, hazy throughout, slightly hazy, very hazy or ringed.
(§9) FISP data is reported as the diameter (in mm.) of the zone of inhibition of growth in agar diffusion assays. The zone is determined by measuring growth that differs from the background lawn. A qualifier is also added to describe the zone quality as listed below: no qualifier: clear zone throughout, sharp edges

Candida pseudotropicalis = test system: Candida pseudotropicalis; design: key: F: clear zone, fuzzy edges; S: slightly hazy zone (some growth observed throughout zone); H: hazy zone (considerable growth observed throughout zone); V: very hazy zone (zone of inhibition is barely discernable); R: zone displays a ring of resistant growth; no qualifier: clear zone throughout, sharp edges; details: 250 μg/ml in CH2Cl2
Text: as §1, §2, §3, §4, §5, §6, §7, §8, §9

Torulospora hansenii = test system: Torulospora hansenii; design: key: F: clear zone, fuzzy edges; S: slightly hazy zone (some growth observed throughout zone); H: hazy zone (considerable growth observed throughout zone); V: very hazy zone (zone of inhibition is barely discernable); R: zone displays a ring of resistant growth; no qualifier: clear zone throughout, sharp edges; details: 250 μg/ml in CH2Cl2
Text: as §1, §2, §3, §4, §5, §6, §7, §8, §9

Candida rugosa = test system: Candida rugosa; design: key: F: clear zone, fuzzy edges; S: slightly hazy zone (some growth observed throughout zone); H: hazy zone (considerable growth observed throughout zone); V: very hazy zone (zone of inhibition is barely discernable); R: zone displays a ring of resistant growth; no qualifier: clear zone throughout, sharp edges; details: 250 μg/ml in CH2Cl2
Text: as §1, §2, §3, §4, §5, §6, §7, §8, §9

Candida tropicalis = test system: Candida tropicalis; design: key: F: clear zone, fuzzy edges; S: slightly hazy zone (some growth observed throughout zone); H: hazy zone (considerable growth observed throughout zone); V: very hazy zone (zone of inhibition is barely discernable); R: zone displays a ring of resistant growth; no qualifier: clear zone throughout, sharp edges; details: 250 μg/ml in CH2Cl2
Text: as §1, §2, §3, §4, §5, §6, §7, §8, §9

Kluyveromyces fragilis = test system: Kluyveromyces fragilis; design: key: F: clear zone, fuzzy edges; S: slightly hazy zone (some growth observed throughout zone); H: hazy zone (considerable growth observed throughout zone); V: very hazy zone (zone of inhibition is barely discernable); R: zone displays a ring of resistant growth; no qualifier: clear zone throughout, sharp edges; details: 250 μg/ml in CH2Cl2
Text: as §1, §2, §3, §4, §5, §6, §7, §8, §9

Candida guilliermondii = details: Meyerozyma guilliermondii; 250 μg/ml in CH2Cl2; read-out: diameter of the zone of inhibition of growth
Text: as §1, §2, §3, §4, §5
(§10) The seeded agar media thus prepared are dispensed into petri dishes for assays (11 ml per dish). […]
(§11) Following incubation, the inhibition zones are measured and recorded. […]
(§12) FISP data is reported as the diameter (in mm.) of the zone of inhibition of growth in agar diffusion assays. The zone is determined by measuring growth that differs from the background lawn. […]

Torulopsis glabrata = details: Nakaseomyces glabratus; 250 μg/ml in CH2Cl2; read-out: diameter of the zone of inhibition of growth
Text: as §1, §2, §3, §4, §5, §10, §11, §12

Ceratocystis ulmi = test system: Ceratocystis ulmi; design: key: F: clear zone, fuzzy edges; S: slightly hazy zone (some growth observed throughout zone); H: hazy zone (considerable growth observed throughout zone); V: very hazy zone (zone of inhibition is barely discernable); R: zone displays a ring of resistant growth; no qualifier: clear zone throughout, sharp edges; details: 250 μg/ml in CH2Cl2
Text: as §1
(§13) The filamentous fungi used in the assay were Penicillium sp. Aspergillus niger, Trichoderma sp., Phoma sp., Trichoderma lignorum, Fusarium oxysporum, Ustilago maydis, Ceratocystis ulmi, Alternaria soloni, Verticillium serrae, Botrytis allii, Scopulariopsis communis, Cephalosporium sp., Cercospora beticola, Rhizomucor miehei, Aspergillus flavus and Aspergillus fumigatus.
as §3
(§14) Inocula for filamentous fungi are prepared by scraping the surface of stock plates maintained on potato dextrose agar with a moistened sterile dacron swab. The spores and mycelia are then suspended in 10 milliliters of sterile potato dextrose broth and adjusted to 65 percent transmission at 660 nm.
as §5, §6, §7, §8, §9

Scopulariopsis communis = test system: Scopulariopsis communis; design: key: F: clear zone, fuzzy edges; S: slightly hazy zone (some growth observed throughout zone); H: hazy zone (considerable growth observed throughout zone); V: very hazy zone (zone of inhibition is barely discernable); R: zone displays a ring of resistant growth; no qualifier: clear zone throughout, sharp edges; details: 250 μg/ml in CH2Cl2
Text: as §1, §13, §3, §14, §5, §6, §7, §8, §9

Penicillium sp. = test system: Penicillium sp.; design: key: F: clear zone, fuzzy edges; S: slightly hazy zone (some growth observed throughout zone); H: hazy zone (considerable growth observed throughout zone); V: very hazy zone (zone of inhibition is barely discernable); R: zone displays a ring of resistant growth; no qualifier: clear zone throughout, sharp edges; details: 250 μg/ml in CH2Cl2
Text: as §1, §13, §3, §14, §5, §6, §7, §8, §9

Trichoderma lignorum = test system: Trichoderma lignorum; design: key: F: clear zone, fuzzy edges; S: slightly hazy zone (some growth observed throughout zone); H: hazy zone (considerable growth observed throughout zone); V: very hazy zone (zone of inhibition is barely discernable); R: zone displays a ring of resistant growth; no qualifier: clear zone throughout, sharp edges; details: 250 μg/ml in CH2Cl2
Text: as §1, §13, §3, §14, §5, §6, §7, §8, §9

Rhizomucor miehei = test system: Rhizomucor miehei; design: key: F: clear zone, fuzzy edges; S: slightly hazy zone (some growth observed throughout zone); H: hazy zone (considerable growth observed throughout zone); V: very hazy zone (zone of inhibition is barely discernable); R: zone displays a ring of resistant growth; no qualifier: clear zone throughout, sharp edges; details: 250 μg/ml in CH2Cl2
Text: as §1, §13, §3, §14, §5, §6, §7, §8, §9

Alternaria solani = test system: Alternaria solani; design: key: F: clear zone, fuzzy edges; S: slightly hazy zone (some growth observed throughout zone); H: hazy zone (considerable growth observed throughout zone); V: very hazy zone (zone of inhibition is barely discernable); R: zone displays a ring of resistant growth; no qualifier: clear zone throughout, sharp edges; details: 250 μg/ml in CH2Cl2
Text: as §1, §13, §3, §14, §5, §6, §7, §8, §9

## CC(/C=C/C=C(\C)C(O)C(C)C(=O)O[C@H]1C[C@H](C)C=C2C=C[C@@]3(C)O[C@@H](O)CC(=O)[C@]3(C)[C@H]21)=C\C=C\C(=O)O (some centres unmarked) [Compound A]
[1]
  zone quality qualifier: S
Candida pseudotropicalis
  zone quality qualifier: V
Torulospora hansenii
  zone quality qualifier: H
Candida rugosa
  zone quality qualifier: S
Candida tropicalis
  zone quality qualifier: S
Kluyveromyces fragilis
  zone quality qualifier: V
Candida guilliermondii
  zone of inhibition at 250 µg/mL: 0 mm
Torulopsis glabrata
  zone of inhibition at 250 µg/mL: 0 mm
Ceratocystis ulmi
  zone quality qualifier: V
Scopulariopsis communis
  zone quality qualifier: F
Penicillium sp.
  zone quality qualifier: H
Trichoderma lignorum
  zone quality qualifier: F
Rhizomucor miehei
  zone quality qualifier: H
Alternaria solani
  zone quality qualifier: F
